According to patent US9150510B2, “Amino acid derivative” (NIPPON ZOKI PHARMACEUTICAL CO., LTD., priority 2008, dated 2015):
Structures can show the parent of a compound that is named as a salt.

Tests used:
[1] = Test of blood kinetics in the rats; assay type: in vivo; conditions: rat, plasma, 2 mg/kg, fasted Wistar male rats, oral single dose of mixed solution of five compounds, each compound 2 mg/5 mL/kg, n=5, LC-MS; for AUC(0-inf): read-out: AUC0-∞ (area under the curve for concentration in blood, time 0 to infinite hours); for Cmax: read-out: Cmax (maximum concentration in plasma)
Experimental: Ten milligrams of a compound of the present invention was properly converted to a sodium salt with the same amount of sodium hydroxide, where necessary, and each was dissolved in 5 mL of water. Five compounds each among these aqueous solutions of the compounds of the present inventions were mixed, to prepare a mixed solution containing 0.4 mg/mL each of each compound. Six-week old Wistar SPF male rats that were fasted were orally administered with the mixed solution in a single dose using a gavage tube (each compound 2 mg/5 mL/kg, n=5). At time points of 0.25, 0.5, 1, 2, 4, and 8 hours after the administration, about 150 μL of blood was collected using a heparin-added capillary tube from veins of rat tails. The capillary tubes were centrifuged to collect the plasma. The plasma sample was deprotenized and the supernatant was diluted to prepare each of measurement sample solutions. The concentration of the compound of the present invention in each of measurement sample solutions was quantified using LC-MS, and Cmax (maximum concentration in plasma) and AUC (area under the curve for concentration in blood, time 0 to infinite (∞) hours) of the compounds of the present invention were calculated.

ddY-type mice = experiment: Analgesic efficacy test (1): acetic acid writhing test (nociceptive pain model animal); assay type: in vivo; conditions: Mus musculus, 25 min, writhing number, male ddY mice, acetic acid i.p. 25 min after administration, mean ± standard error, read-out: Percent Suppression (%); for inhibition in vivo at 10 mg/kg: oral single dose 10 mg/kg
From the text: A compound of the present invention was orally administered to mice, to carry out an analgesic efficacy test according to acetic acid writhing test (nociceptive pain model animal). As an experimental animal, 4-week old male ddY-type mice were previously bred, and thereafter 8 mice per one group were used in the experiment. A solution or suspension prepared by dissolving or suspending a compound of the present invention in a 0.5% (w/v) aqueous CMC-Na solution was orally administered as a test substance in a single dose. While, to a control group, a 0.5% (w/v) aqueous CMC-Na solution was administered in the same manner. After 25 minutes from administration, the mice were intraperitoneally administered with a 0.7% (v/v) acetic acid/physiological saline at the dose of 10 mL/kg. From 5 minutes thereafter, writhing number in a 10-minute period was counted, and a suppressive rate for each individual (mean±standard error) was calculated by the following formula: […]
In the test for significance difference, Baltlett's test was carried out in the comparison between multiple groups of the group administered with test substance with the control group. In the case of homoscedasticity, Dunnett's multiple comparison test of parametrics, and in the case of heteroscedasticity, Dunnett's multiple comparison test of non-parametrics were used. In addition, in the test of dose dependency, Jockheere-Terpstra's test was used. In all cases, significance difference was considered to be found at P<0.05.

Chung model rat = experiment: Analgesic efficacy test (2): Chung model rat, neuropathic pain model (allodynia, von Frey filament); assay type: in vivo; conditions: Table 13; oral single dose 10 mg/kg; Wistar male rats, L5 spinal nerve ligation; mean ± standard error
Experimental: An analgesic efficacy test was conducted using a Chung model rat, a neuropathic pain model. Using Wistar male rats after passing 9-week old as an experimental animal, a model rat was prepared in accordance with the method of Kim and Chung (Pain, 50, 355-363, 1992). Specifically, left L5 spinal nerves of rats were exposed under anesthetization with pentobarbital (35 mg/kg, intraperitoneal administration), and firmly ligated with 5-0 silk yarn at L5 dorsal root ganglion peripheral side. The animals were placed in a transparent acrylic cage of which bottom was wire netted The measurement of allodynia was carried out using von Frey filament (manufactured by North Coast Medical Inc.) and a 50% reaction threshold was calculated according to an up-down method, in accordance with methods of Chaplan et al. (J. Neurosci. Method, 53, 55-63, 1994) and Lee et al. (J. Neurophysiol., 81, 2226-2233, 1999). The 50% reaction thresholds were measured twice before injury of the spinal nerve, and those animals of which thresholds were outside the standard were removed from the operation of spinal nerve injury. On or after 14 days from the spinal nerve injury, a 50% reaction threshold was measured, and those showing thresholds of 1 g or more and less than 4 g were used as experimental animal. The group was constituted by 7 rats per group so that an average of a 50% reaction threshold for each group would be nearly even.
A solution or suspension prepared by dissolving or suspending a compound of the present invention in a 0.5% (w/v) aqueous CMC-Na solution was orally administered as a test substance in a single dose while, a 0.5% (w/v) aqueous CMC-Na solution was administered in the same manner to the control group for nerve injury. After 30 minutes from the administration, the measurement of allodynia was carried out, and a 50% reaction threshold (mean±standard error) was calculated. In the test for significance difference, Baltlett's test was carried out in the comparison between multiple groups of the group administered with test substance with the control group for nerve injury. In the case of homoscedasticity, Dunnett's multiple comparison test of parametrics, and in the case of heteroscedasticity, Dunnett's multiple comparison test of non-parametrics were used. In all cases, significance difference was considered to be found at P<0.05.

Structure (SMILES)	melting point	AUC(0-inf) [1]	Cmax [1]	other results
O=C(C=Cc1ccccc1O)N[C@@H](Cc1c[nH]c2ccccc12)C(=O)O (as salt: sodium) [Compound 2, N^α-[3-(2-Hydroxyphenyl)acryloyl]-L-tryptophan]	172 to 173 °C			
N#Cc1ccccc1C=CC(=O)N[C@@H](Cc1c[nH]c2ccccc12)C(=O)O (as salt: sodium) [Compound 9, N^α-[3-(2-Cyanophenyl)acryloyl]-L-tryptophan]	124 to 125 °C			
C=CC(=O)N[C@@H](Cc1c[nH]c2ccccc12)C(=O)O (as salt: sodium) [Compound 1, N^α-Acryloyl-L-tryptophan]	150 to 151 °C			
N#CC(=Cc1ccccc1F)C(=O)N[C@@H](Cc1c[nH]c2ccccc12)C(=O)O [Compound 22, N^α-[2-Cyano-3-(2-fluorophenyl)acryloyl]-L-tryptophan]		11400 ng·h/mL	4000 ng/mL	50% Reaction Threshold (g), Group Administered with Test Substance, 30 Min. After Administration (Chung model rat): 11.34 ± 1.52 g; inhibition in vivo at 10 mg/kg (ddY-type mice): 39.9 ± 8.6%

Second part, led by results:

melting point	AUC(0-inf) [1]	Cmax [1]	Structure (SMILES)	other results
163 to 164 °C			O=C(C=Cc1cccc(O)c1)N[C@@H](Cc1c[nH]c2ccccc12)C(=O)O (as salt: sodium) [Compound 6, N^α-[3-(3-Hydroxyphenyl)acryloyl]-L-tryptophan]	
140 to 141 °C			O=C(C=Cc1ccc(F)cc1)N[C@@H](Cc1c[nH]c2ccccc12)C(=O)O (as salt: sodium) [Compound 5, N^α-[3-(4-Fluorophenyl)acryloyl]-L-tryptophan]	
158 to 159 °C			O=C(C=Cc1ccc(O)cc1)N[C@@H](Cc1c[nH]c2ccccc12)C(=O)O (as salt: sodium) [Compound 7, N^α-[3-(4-Hydroxyphenyl)acryloyl]-L-tryptophan]	
104 to 105 °C	26200 ng·h/mL	5800 ng/mL	O=C(C=Cc1ccccc1F)N[C@@H](Cc1c[nH]c2ccccc12)C(=O)O [Compound 3, N^α-[3-(2-Fluorophenyl)acryloyl]-L-tryptophan]	inhibition in vivo at 3 mg/kg (ddY-type mice; oral single dose 3 mg/kg): 36.9 ± 10.6%
	33900 ng·h/mL	4800 ng/mL	O=C(C=Cc1ccc(F)cc1F)N[C@@H](Cc1c[nH]c2ccccc12)C(=O)O [Compound 14, N^α-[3-(2,4-Difluorophenyl)acryloyl]-L-tryptophan]	50% Reaction Threshold (g), Group Administered with Test Substance, 30 Min. After Administration (Chung model rat): 9.38 ± 1.68 g; inhibition in vivo at 10 mg/kg (ddY-type mice): 43.2 ± 10.9%
